Values of other authors, collected in EP0313535B1 (Bristol-Myers Squibb Company, priority 1987, dated 1989).
Values belong to the molecule of their own block, whether it stands above or below them.

Key:
[1] = metabolite of buspirone

Structure (SMILES): O=C1CC2(CCCC2)CC(=O)N1CCCCN1CCN(c2ncc(O)cn2)CC1 [5-OH-buspirone]
- pharmacological activity [1]: no pharmacological activity

Structure (SMILES): c1cnc(N2CCNCC2)nc1 [Example 1-PP, 1-(2-pyrimidinyl)-piperazine]
- activity relative to buspirone per se [1]: 20-25%

- biological half life (in man (Mayol et al. 1985)): 2-11 hours
- variation of the maximum plasma concentration (interindividual (Gammans et al. 1986)): up to 10 fold
Structure (SMILES): O=C1CC2(CCCC2)CC(=O)N1CCCCN1CCN(c2ncccn2)CC1 [buspirone, Buspirone]
